Assays:
Assay type in all cases: cell-based
recombinant CYP-17 = target: T1, recombinant CYP-17 (Homo sapiens, UniProt P05093); test: Cyp17 assay: 3H-acetic acid release from [21-3H] 17α-hydroxyl-Pregnenolone in AD293 cells; conditions: AD293 cells stably over-expressing recombinant CYP-17; eight concentrations 10 μM to 4.5 nM
T1 construct: expressed in transfected cells
T1 sequence (P05093 1-508): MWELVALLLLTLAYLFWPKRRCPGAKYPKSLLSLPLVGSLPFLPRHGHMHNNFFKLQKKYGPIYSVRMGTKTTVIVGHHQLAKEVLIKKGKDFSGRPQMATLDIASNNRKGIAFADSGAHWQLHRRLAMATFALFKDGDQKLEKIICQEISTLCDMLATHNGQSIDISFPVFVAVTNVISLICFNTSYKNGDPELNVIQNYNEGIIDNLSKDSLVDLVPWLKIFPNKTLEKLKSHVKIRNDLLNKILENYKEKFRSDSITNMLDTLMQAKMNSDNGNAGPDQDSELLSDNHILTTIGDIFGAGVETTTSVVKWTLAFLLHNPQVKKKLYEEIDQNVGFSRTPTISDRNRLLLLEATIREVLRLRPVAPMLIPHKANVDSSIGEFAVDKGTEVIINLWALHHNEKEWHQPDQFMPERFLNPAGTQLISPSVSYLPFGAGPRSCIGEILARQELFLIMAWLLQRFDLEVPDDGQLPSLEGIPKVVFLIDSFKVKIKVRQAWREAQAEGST
Experimental: Cyp17 assay protocol: AD293 cells that stably over-express recombinant CYP-17 were seeded in 96 well plates coated with poly D-lysine (15,000 cell per well) and incubated at 37° C. for 24 hours in Dulbecco's Modified Eagle Medium (DMEM) with Fetal Bovine Serum (FBS) that is stripped of hormones by charcoal treatment. The media is then removed, the cells are washed once with Phosphate buffer saline solution, and 50 μL Dulbecco's Modified Eagle Medium (DMEM) with Fetal Bovine Serum (FBS) that is stripped of hormones by charcoal treatment is added. Compounds of the disclosure are then added to the wells in eight concentration spanning 10 μM to 4.5 nM, and the plates are incubated for an additional 60 minutes at 37° C. [21-^3H] 17α-hydroxyl-Pregnenolone is then added (50 nCi per well, 31.25 nM) and the plates are incubated for an additional 4 hours at 37° C. The media is then collected, 200 μL of chloroform is added, and the mixture is shaken for 1 hour. The aqueous layer is then separated and analyzed for the presence of ^3H-acetic acid using a Perkin Elmer Topcount NXT to determine IC50s of the compounds of the disclosure.

recombinant CYP-11 = target: T2, recombinant CYP-11 (Homo sapiens, UniProt P15538); test: Cyp11 assay: cortisol formation from 11-deoxycortisol in AD293 cells, LC/MS; conditions: AD293 cells stably over-expressing recombinant CYP-11; eight concentrations 10 μM to 4.5 nM
T2 construct: expressed in transfected cells
T2 sequence (P15538 25-503): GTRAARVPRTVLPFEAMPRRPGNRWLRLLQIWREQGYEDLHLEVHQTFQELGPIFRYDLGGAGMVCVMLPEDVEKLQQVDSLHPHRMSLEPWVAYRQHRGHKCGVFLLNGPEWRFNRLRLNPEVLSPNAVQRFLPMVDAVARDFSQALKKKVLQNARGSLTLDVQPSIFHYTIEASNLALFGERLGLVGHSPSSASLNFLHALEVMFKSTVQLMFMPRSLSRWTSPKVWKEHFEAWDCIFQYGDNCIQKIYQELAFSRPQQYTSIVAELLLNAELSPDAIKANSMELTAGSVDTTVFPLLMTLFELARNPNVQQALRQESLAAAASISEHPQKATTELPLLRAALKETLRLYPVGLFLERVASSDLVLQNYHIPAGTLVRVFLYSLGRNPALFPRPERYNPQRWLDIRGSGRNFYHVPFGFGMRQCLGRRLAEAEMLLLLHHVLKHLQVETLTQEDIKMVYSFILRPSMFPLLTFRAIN
Experimental: Cyp11 assay protocol: AD293 cells that stably over-express recombinant CYP-11 were seeded in 96 well plates coated with poly D-lysine (15,000 cell per well) and incubated at 37° C. for 24 hours in Dulbecco's Modified Eagle Medium (DMEM) with Fetal Bovine Serum (FBS) that is stripped of hormones by charcoal treatment. The media is then removed, the cells are washed once with Phosphate buffer saline solution, and 50 μL Dulbecco's Modified Eagle Medium (DMEM) with Fetal Bovine Serum (FBS) that is stripped of hormones by charcoal treatment is added. Compounds of the disclosure are then added to the wells in eight concentration spanning 10 μM to 4.5 nM, and the plates are incubated for an additional 60 minutes at 37° C. 11-deoxycortisol is then added ([…]) and the plates are incubated for an additional 12 hours at 37° C. After incubation, 50 uL of the supernatant (medium) is transferred into a fresh plate and 150 uL of an acetonitrile solution containing 200 ng/ml of Telmisartan is added. The sample is mixed and then placed in a centrifuge at 2000 rpm for 5 minutes. 100 uL of the supernatant is transferred into a fresh 96 well deep well plate, 100 uL of 1:1 methanol: water was added, the solution was mixed and then analyzed by LC/MS for the presence of cortisol using an Agilent 1200 RRLC/ABSCIEX API4000 LC-MS or Shimadzu Prominance/ABSCIEX API4000 LC-MS to determine IC50s of the compounds of the disclosure.

recombinant CYP-21 = target: T3, recombinant CYP-21 (Homo sapiens, UniProt P08686); test: Cyp21 assay: 11-deoxycortisol formation from 17-OH Progesterone in AD293 cells, LC/MS; conditions: AD293 cells stably over-expressing recombinant CYP-21; eight concentrations 10 μM to 4.5 nM
T3 construct: expressed in transfected cells
T3 sequence (P08686 1-495): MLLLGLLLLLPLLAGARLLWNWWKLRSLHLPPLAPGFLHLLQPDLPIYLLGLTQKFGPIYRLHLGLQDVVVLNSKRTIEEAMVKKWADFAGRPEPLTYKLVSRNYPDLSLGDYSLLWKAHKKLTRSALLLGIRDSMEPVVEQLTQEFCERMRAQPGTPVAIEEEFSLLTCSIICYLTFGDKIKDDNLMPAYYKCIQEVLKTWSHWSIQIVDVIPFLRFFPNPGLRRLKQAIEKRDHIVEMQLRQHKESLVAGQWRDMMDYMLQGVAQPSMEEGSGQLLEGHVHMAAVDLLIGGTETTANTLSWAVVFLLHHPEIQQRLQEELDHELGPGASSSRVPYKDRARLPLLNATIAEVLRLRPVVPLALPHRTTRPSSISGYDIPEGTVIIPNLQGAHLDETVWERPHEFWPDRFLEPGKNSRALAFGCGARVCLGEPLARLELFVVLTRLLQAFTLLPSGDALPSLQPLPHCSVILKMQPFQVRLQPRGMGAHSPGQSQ
Experimental: Cyp21 assay protocol: AD293 cells that stably over-express recombinant CYP-21 were seeded in 96 well plates coated with poly D-lysine (10,000 cell per well) and incubated at 37° C. for 24 hours in Dulbecco's Modified Eagle Medium (DMEM) with Fetal Bovine Serum (FBS) that is stripped of hormones by charcoal treatment. The media is then removed, the cells are washed once with Phosphate buffer saline solution, and 50 μL Dulbecco's Modified Eagle Medium (DMEM) with Fetal Bovine Serum (FBS) that is stripped of hormones by charcoal treatment is added. Compounds of the disclosure are then added to the wells in eight concentration spanning 10 μM to 4.5 nM, and the plates are incubated for an additional 60 minutes at 37° C. 17-OH Progesterone is then added ([…]) and the plates are incubated for an additional 45 minutes at 37° C. After incubation, 50 uL of the supernatant (medium) is transferred into a fresh plate and 150 uL of an acetonitrile solution containing 200 ng/ml of Telmisartan is added. The sample is mixed and then placed in a centrifuge at 2000 rpm for 5 minutes.

| SMILES | IC50 (recombinant CYP-17) [nM] | IC50 (recombinant CYP-11) [µM] | IC50 (recombinant CYP-21) [nM] |
| --- | --- | --- | --- |
| COc1cc(F)ccc1-c1ccc(C(c2ccncc2)N2CCN(c3ccccn3)CC2)cc1 (stereo not drawn) [Entry 23, 1-((4′-fluoro-2′-methoxy-[1,1′-biphenyl]-4-yl)(pyridin-4-yl)methyl)-4-(pyridin-2-yl)piperazine] | 43 | ≥ 10 | ≥ 10000 |
| COc1ccc(-c2ccc(C(OC)c3ccncc3)cc2)cc1OC (stereo not drawn) [Entry 15, 4-(methoxy(3′,4′-dimethoxy-[1,1′-biphenyl]-4-yl)methyl)pyridine] | 11 | – | 180 |
| COc1cc(F)ccc1-c1ccc(C(F)(F)c2ccncc2)cc1 [Entry 2, 4-[Difluoro-(4′-fluoro-2′-methoxy-biphenyl-4-yl)-methyl]-pyridine] | 2200 | ≥ 10 | 236 |
| COc1cc(F)ccc1-c1ccc(C(c2ccncc2)N2CCN(c3ccccc3C#N)CC2)cc1 (stereo not drawn) [Entry 24, 2-(4-((4′-fluoro-2′-methoxy-[1,1′-biphenyl]-4-yl)(pyridin-4-yl)methyl)piperazin-1-yl)benzonitrile] | 192 | ≥ 10 | ≥ 10000 |
| COc1ccc(-c2ccc(C(F)c3ccncc3)cc2)cc1OC (stereo not drawn) [Entry 7] | 14 | ≥ 10 | 940 |
| COc1cc(F)ccc1-c1ccc(C(OC)c2ccncc2)cc1 (stereo not drawn) [Entry 33, 4-((4′-fluoro-2′-methoxy-[1,1′-biphenyl]-4-yl)(methoxy)methyl)pyridine] | ≥ 10000 | ≥ 10 | 524 |
| COc1ccc(-c2ccc(C(OC(C)C)c3ccncc3)cc2)cc1OC (stereo not drawn) [Entry 13, 4-(isopropoxy(3′,4′-dimethoxy-[1,1′-biphenyl]-4-yl)methyl)pyridine] | 10 | – | 210 |
| COc1ccc(-c2ccc(C3(c4ccncc4)OCCO3)cc2)cc1OC [Entry 16, 4-[2-(3′,4′-dimethoxy-biphenyl-4-yl)-[1,3]dioxolan-2-yl]-pyridine] | 23 | 1.4 | 565 |
| COc1cc(F)ccc1-c1ccc(C(F)c2ccncc2)cc1 (stereo not drawn) [Entry 1, 4-[Fluoro-(4′-fluoro-2′-methoxy-biphenyl-4-yl)-methyl]-pyridine] | 220 | ≥ 10 | 1500 |
| COc1cc(F)ccc1-c1ccc(C2(c3ccncc3)OCC(C)(C)CO2)cc1 [Entry 6, 4-[2-(4′-Fluoro-2′-methoxy-biphenyl-4-yl)-5,5-dimethyl-[1,3]dioxan-2-yl]-pyridine] | 600 | ≥ 10 | 2200 |
| COc1cc(F)ccc1-c1ccc(C2(c3ccncc3)OCCO2)cc1 [Entry 3, 4-[2-(4′-Fluoro-2′-methoxy-biphenyl-4-yl)-[1,3]dioxolan-2-yl]-pyridine] | – | 2 | 820 |
| COc1cc(F)ccc1-c1ccc(C2(c3ccncc3)OCCO2)cc1 [Entry 4, 4-[2-(4′-Fluoro-2′-methoxy-biphenyl-4-yl)-[1,3]dioxolan-2-yl]-pyridine] | – | ≥ 10 | 320 |
| CCOC(c1ccncc1)c1ccc(-c2ccc(OC)c(OC)c2)cc1 (stereo not drawn) [Entry 14, 4-(ethoxy(3′,4′-dimethoxy-[1,1′-biphenyl]-4-yl)methyl)pyridine] | 26 | – | 190 |

Now from value to compound:

| IC50 (recombinant CYP-17) [nM] | IC50 (recombinant CYP-11) [µM] | IC50 (recombinant CYP-21) [nM] | SMILES |
| --- | --- | --- | --- |
| 510 | 0.48 | 620 | COc1cccc(-c2ccc(C(OC)c3ccncc3)cc2)c1 (stereo not drawn) [Entry 34, 4-(methoxy(3′-methoxy-[1,1′-biphenyl]-4-yl)methyl)pyridine] |
| 10 | – | 1800 | COc1ccc(-c2ccc(C(c3ccncc3)N3CCOCC3)cc2)cc1OC (stereo not drawn) [Entry 10, 4-((3′,4′-Dimethoxy-[1,1′-biphenyl]-4-yl)(pyridin-4-yl)methyl)morpholine] |
| 1170 | ≥ 10 | ≥ 10000 | COc1cccc(-c2ccc(C(c3ccncc3)N3CCNCC3)cc2)c1 (stereo not drawn) [Entry 32, 1-((3′-methoxy-[1,1′-biphenyl]-4-yl)(pyridin-4-yl)methyl)piperazine] |
| 107 | ≥ 10 | ≥ 10000 | COc1cc(F)ccc1-c1ccc(C(c2ccncc2)N2CCN(C)CC2)cc1 (stereo not drawn) [Entry 20, 1-((4′-fluoro-2′-methoxy-[1,1′-biphenyl]-4-yl)(pyridin-4-yl)methyl)-4-methylpiperazine] |
| 77 | – | ≥ 10000 | COc1ccc(-c2ccc(C(c3ccncc3)N3CCN(C)CC3)cc2)cc1OC (stereo not drawn) [Entry 12, 1-((3′4′-dimethoxy-[1,1′-biphenyl]-4-yl)(pyridin-4-yl)methyl)-4-methylpiperazine] |
| 14 | – | 1200 | COc1ccc(-c2ccc(C(c3ccncc3)N3CCCCC3)cc2)cc1OC (stereo not drawn) [Entry 9] |
| 180 | ≥ 10 | ≥ 10000 | COc1cc(F)ccc1-c1ccc(C(c2ccncc2)N2CCN(c3ccccc3)CC2)cc1 (stereo not drawn) [Entry 22, 1-((4′-fluoro-2′-methoxy-[1,1′-biphenyl]-4-yl)(pyridin-4-yl)methyl)-4-phenylpiperazine] |
| 10 | – | 2500 | COc1ccc(-c2ccc(C(c3ccncc3)N3CCCC3)cc2)cc1OC (stereo not drawn) [Entry 11, 4-((3′4′-dimethoxy-[1,1′-biphenyl]-4-yl)(pyrrolidin-1-yl)methyl)pyridine] |

Source: US20150210641A1, “NOVEL CYTOCHROME P450 INHIBITORS AND THEIR METHOD OF USE” (CORTENDO AB (PUBL), priority 2014, published 2015)
